Source: patent publication US3980646A, “3-Methylpyrazole-5-carboxylates and medicaments containing these compounds” (Wulfing; Johann A., priority 1974, dated 1976)
Values joined by “and” are separate entries in the source; they are usually repeats but may differ in a detail not shown here. Equal entries are not always repeated.

What was measured:
[1] = system: free fatty acids and triglycerides in the serum; conditions: cited from earlier work
[2] = free acid, known per se; cited from earlier work
[3] = system: free fatty acids (FFS); test: influence on the free fatty acids (FFS) after repeated application once daily for 4 days; format: in vivo, Rats male (Wistar); conditions: for free fatty acids (FFS): individual animals, 15 mg/kg
Description: Rats male, repeated application once daily for 4 days,
on the 4th day groups of 10 animals were killed at
intervals of 30 minutes, 1 hour and 2 hours after the
last application by ether narcosis and heart puncture.
10 controls were given esophagus probe, animals starved
for 17 hours before killing (cf. FIG. 4)
7-[3-(N-methyl-2-hydroxyethyl)-amino-2-
hydroxypropyl]-1,3-dimethylxanthine-3-
methylpyrazole-5-carboxylate 50 mg/kg peroral
3-methylpyrazole-5-carboxylic acid (3-MPC)
eq./kg 15 mg/kg peroral

[4] = system: serum triglycerides (TG); test: influence on the serum triglycerides (TG) in normal animals; format: in vivo, Rats (Wistar); conditions: for TG: starve for 5 hours; for TG, mean (x): 1 hour
Description: Rats, starve for 5 hours
40 mg/kg body weight of active principle according to
the invention, oral by esophagus probe 1 hour before
12 mg/kg body weight of 3-methylpyrazole-5-carboxylic
acid, equim. dosage, 1 hour before removal of blood
Dose: 10 mg/kg body weight of active principle according to the
invention, oral by esophagus probe 1 hour before blood removal
Dose: 3 mg/kg body weight of 3-methylpyrazole-5-carboxylic acid,
equim. dosage, oral by esophagus probe 1 hour before

[5] = starving rats; David L. Smith et al; cited from earlier work
[6] = system: free fatty acids (FFS); test: influence on the free fatty acids (FFS) in starved (hyperlipacidaemic) animals, hunger lipolysis; format: in vivo, rats (Wistar); conditions: starved
Description: Investigations on a total of 260 Wistarrats were conducted with 7-[3-(N-methyl-N-2-hydroxyethyl)-amino-2-hydroxypropyl]-1,3-dimethylxanthine-3-methylpyrazole-5-carboxylate.
Examination of the influence of 7-[3-(N-methyl-N-2-hydroxy-
ethyl)-amino-2-hydroxypropyl]-1,3-dimethylxanthine-3-methyl-
pyrazole-5-carboxylate on the serum fatty acids (FFS) of
Male Rats, starve for 17 hours
Dose: 100 mg/kg body weight, oral by esophagus probe,
Blood removal: 1 hour after application
pyrazole-5-carboxylate on the free fatty acids (FFS) in
starved animals 1 hour after application
Comparative examinations of the influence of 7-[3-(N-methyl-
carboxylic acid on the free fatty acids (FFS) in starved
animals 1 hour after application
pyrazole-5-carboxylic acid on the free fatty acids (FFS)
in starved animals 6 hours after application

## Cc1cc(C(=O)O)[nH]n1 [3-methylpyrazole-5-carboxylic acid, reference compound]
[1]; observed by the authors, limits its suitability for therapeutic application
  tachyphylaxia: tachyphylaxia
[1]; pretreatment 4 to 5 days, Gerritzen et al
  effect of pretreatment on the free fatty acid content of the plasma: weakens the effect on the free fatty acid content of the plasma
[1]; small doses, starving normal rats
  level of free fatty acids and triglycerides in the serum: reduces the level of free fatty acids and triglycerides in the serum
[2]
  lipid-lowering activity: shows corresponding activity
[3]; 15 mg/kg p.o. 4 × appl., 30' after last application
  free fatty acids (FFS): 0.66 μval/ml plasma and 0.59 μval/ml plasma and 0.53 μval/ml plasma and 0.91 μval/ml plasma and 0.56 μval/ml plasma and 0.95 μval/ml plasma and 1.02 μval/ml plasma and 0.81 μval/ml plasma and 0.80 μval/ml plasma and 0.60 μval/ml plasma
[3]; 15 mg/kg p.o. 4 × appl., 1 h after last application
  free fatty acids (FFS): 0.75 μval/ml plasma and 0.73 μval/ml plasma and 0.95 μval/ml plasma and 0.96 μval/ml plasma and 1.03 μval/ml plasma and 1.16 μval/ml plasma and 1.08 μval/ml plasma and 0.84 μval/ml plasma and 1.24 μval/ml plasma and 0.92 μval/ml plasma
[3]; 15 mg/kg p.o. 4 × appl., 2 h after last application
  free fatty acids (FFS): 0.62 μval/ml plasma and 0.59 μval/ml plasma and 0.51 μval/ml plasma and 0.70 μval/ml plasma and 0.88 μval/ml plasma and 0.84 μval/ml plasma and 1.27 μval/ml plasma and 1.20 μval/ml plasma and 0.86 μval/ml plasma
[3]; mean of 9, 15 mg/kg p.o. 4 × appl., 2 h after last application, control 1.27, p<0.001
  free fatty acids (FFS), mean (x9): 0.83 μval/ml plasma
[3]; 15 mg/kg p.o. 4 × appl., 30' after last application, control 1.27, p<0.001
  free fatty acids (FFS), mean (x10): 0.74 μval/ml plasma
[3]; 15 mg/kg p.o. 4 × appl., 1 h after last application, control 1.27, p<0.001
  free fatty acids (FFS), mean (x10): 0.97 μval/ml plasma
[3]; repeated application, result in words
  weakening of effect on free fatty acid content by pretreatment: able to confirm the results of these tests
[4]; Table 7, individual animals, 12 mg/kg (equim. dosage) 1 hour before removal of blood, 12 mg/kg
  TG: 90.2 mg % and 87.3 mg % and 58.7 mg % and 107.4 mg % and 51.6 mg % and 55.8 mg % and 71.6 mg % and 60.1 mg % and 68.7 mg %
[4]; Table 7, mean, 12 mg/kg (equim. dosage), control x = 66.4
  TG, mean (x): 74.1 mg %
[4]; Table 8, individual animals, 3 mg/kg (equim. dosage) oral 1 hour before blood removal, 3 mg/kg
  TG: 137.4 mg % and 87.3 mg % and 70.2 mg % and 74.4 mg % and 50.1 mg % and 43.0 mg % and 57.2 mg % and 51.5 mg % and 32.9 mg % and 73.0 mg %
[4]; Table 8, mean, 3 mg/kg (equim. dosage) oral, control x = 86.3, p>0.05→Ko., p>0.05→xant.-carbox.
  TG, mean (x): 67.7 mg %
[4]; equimolecular doses of the free acid, result in words
  effect on serum triglyceride level of normal animals: relatively weak, i.e. insignificant effect
[5]
  hypoglycaemic activity relative to tolbutamide: two hundred times
[6]; Table 5, individual animals, 1 hour after application, 15 mg/kg
  FFS: 0.41 μval/ml and 0.43 μval/ml and 0.59 μval/ml and 0.52 μval/ml and 0.67 μval/ml and 0.37 μval/ml and 0.40 μval/ml and 0.54 μval/ml and 0.44 μval/ml
[6]; Table 5, mean, n=10, 1 hour after application, 15 mg/kg, control 1.08, p<0.001
  FFS, mean: 0.47 μval/ml
[6]; Table 6, individual animals, 6 hours after application, 15 mg/kg p.o., 15 mg/kg
  FFS: 0.51 μval/ml and 0.50 μval/ml and 0.67 μval/ml and 0.64 μval/ml and 0.56 μval/ml and 0.53 μval/ml and 0.61 μval/ml and 0.85 μval/ml and 0.44 μval/ml and 0.54 μval/ml and 0.58 μval/ml and 1.00 μval/ml and 0.47 μval/ml and 1.46 μval/ml and 1.10 μval/ml
[6]; Table 6, mean, n=21, 6 hours after application, 15 mg/kg p.o., control 0.86, p<0.01
  FFS, mean (x): 0.69 μval/ml
